Patent US20100086483A1, “METHOD OF MULTIDETECTOR COMPUTED TOMAGRAPHY” (Gilead Palo Alto, Inc., priority 2008, published 2010)

Test system: conscious dogs
Experiment: Effects of caffeine on regadenoson-induced coronary vasodilation and changes in hemodynamics in conscious dogs (Part II)
Type: in vivo, dog
Conditions: for duration of 2-fold increase in CBF / maximum CBF: time control group, 4 dogs
Method: Sixteen chronically instrumented male mongrel dogs weighing from 22-30 kg were used in the study. The animal protocol was approved by the Institutional Animal Care and Use Committee of New York Medical College and conforms to the Guide for the Care and Use of Laboratory Animal by the United States National Institutes of Health.
Dogs were sedated with acepromazine (0.3 mg/kg, IM) and anesthetized with pentobarbital sodium (25 mg/kg, IV). After intubation, dogs were artificially ventilated with room air. A thoracotomy was made in the fifth intercostal space using sterile techniques. A Tygon catheter (Cardiovascular Instruments, Wakefield, Mass.) was inserted into the descending thoracic aorta and another one was inserted into the left atrium. In 9 dogs, an ultrasound flow transducer (Transonic Systems, Ithaca, N.Y.) was placed around the left circumflex coronary artery. A solid-state pressure gauge (P6.5, Konisberg Instruments, Pasadena, Calif.) was placed into the left ventricle through the apex. The chest was closed in layers. The catheters and wires were tunneled subcutaneously and externalized through the skin at the back of the dog's neck. Dogs were allowed to recover from the surgery before experiments were performed, and were trained to lie on a table.
Phasic arterial pressure was measured by connecting the aortic catheter to a strain gauge transducer (P23 ID, LDS Test and Measurement, Valley View, Ohio). Left ventricular pressures were measured by the solid pressure gauge. CBF (mL/min) was measured from an ultrasound flow transducer using a Transonic flowmeter (T206, Transonic Systems, Ithaca, N.Y.). Two indices were used to describe the regadenoson-induced coronary vasodilation: 1) the maximum increase in CBF and 2) the duration of the 2-fold increase in CBF (the period of time that CBF was elevated to a level ≧2-fold of baseline CBF). All pressure and flow data were acquired and analyzed using a Ponemah System (Version 3.30 or 4.20, LDS Test and Measurement, Valley View, Ohio). MAP and HR were calculated from phasic blood pressure, and LV dP/dtMax was calculated from the left ventricular systolic pressure.
On the day of an experiment, a dog was placed on a table, where it lay quietly during the experiment. A catheter was inserted into a peripheral vein in the leg and attached to an infusion line to administer drugs without disturbing the dog. The experiment was begun after MAP, HR and CBF were stable.
Each dog received an IV injection of 5 μg/kg of regadenoson. […] LVSP, LV dP/dtMax, MAP, HR and CBF were recorded continuously. Blood samples were taken from the left atrial catheter at 1, 3, 5, 15, 30, 45 and 60 min following injections of regadenoson.
In 4 dogs, two doses of regadenoson (5 μg/kg, IV) were given 90 min apart (without blood sampling) to determine if there is tachyphylaxis of regadenoson-induced coronary vasodilation.
The statistical significance of a difference between the value of a parameter at baseline and at the indicated time point after drug administration was determined using a One-Way Repeated Measures ANOVA followed by Tukey's Test. […] Results with p<0.05 were considered to be significant. […] All data are presented as Mean±SEM.

[1] = regadenoson 5 μg/kg IV without caffeine (control of caffeine 2 mg/kg group), 3 min
[2] = regadenoson 5 μg/kg IV without caffeine (control of caffeine 2 mg/kg group), 4 min
[3] = regadenoson 5 μg/kg IV without caffeine (control of caffeine 2 mg/kg group), 5 min
[4] = regadenoson 5 μg/kg IV without caffeine (control of caffeine 2 mg/kg group), 10 min
[5] = regadenoson 5 μg/kg IV without caffeine (control of caffeine 2 mg/kg group), 15 min
[6] = regadenoson 5 μg/kg IV without caffeine (control of caffeine 2 mg/kg group), 20 min
[7] = regadenoson 5 μg/kg IV without caffeine (control of caffeine 4 mg/kg group), 0.5 min
[8] = regadenoson 5 μg/kg IV without caffeine (control of caffeine 4 mg/kg group), 1 min
[9] = regadenoson 5 μg/kg IV without caffeine (control of caffeine 4 mg/kg group), 2 min
[10] = regadenoson 5 μg/kg IV without caffeine (control of caffeine 4 mg/kg group), 3 min
[11] = regadenoson 5 μg/kg IV without caffeine (control of caffeine 4 mg/kg group), 4 min
[12] = regadenoson 5 μg/kg IV without caffeine (control of caffeine 4 mg/kg group), 5 min
[13] = regadenoson 5 μg/kg IV without caffeine (control of caffeine 4 mg/kg group), 10 min
[14] = regadenoson 5 μg/kg IV without caffeine (control of caffeine 4 mg/kg group), 15 min
[15] = regadenoson 5 μg/kg IV without caffeine (control of caffeine 4 mg/kg group), 20 min
[16] = regadenoson 5 μg/kg IV without caffeine (control of caffeine 10 mg/kg group), 0.5 min
[17] = regadenoson 5 μg/kg IV without caffeine (control of caffeine 10 mg/kg group), 1 min
[18] = regadenoson 5 μg/kg IV without caffeine (control of caffeine 10 mg/kg group), 2 min
[19] = regadenoson 5 μg/kg IV without caffeine (control of caffeine 10 mg/kg group), 3 min
[20] = regadenoson 5 μg/kg IV without caffeine (control of caffeine 10 mg/kg group), 4 min
[21] = regadenoson 5 μg/kg IV without caffeine (control of caffeine 10 mg/kg group), 5 min
[22] = regadenoson 5 μg/kg IV without caffeine (control of caffeine 10 mg/kg group), 10 min
[23] = regadenoson 5 μg/kg IV without caffeine (control of caffeine 10 mg/kg group), 15 min
[24] = regadenoson 5 μg/kg IV without caffeine (control of caffeine 10 mg/kg group), 20 min
[25] = regadenoson 5 μg/kg IV, absence of caffeine, n=8
[26] = regadenoson 5 μg/kg IV, absence of caffeine, n=9
[27] = first injection of regadenoson 5 μg/kg IV
[28] = second injection of regadenoson 5 μg/kg IV 90 min later

CNC(=O)c1cnn(-c2nc(N)c3ncn([C@@H]4O[C@H](CO)[C@@H](O)[C@H]4O)c3n2)c1 [Regadenoson, (1-{9-[(4S,2R,3R,5R)-3,4-dihydroxy-5-(hydroxymethyl)oxolan-2-yl]-6-aminopurin-2-yl}pyrazol-4-yl)-N-methylcarboxamide]
HR [1]: 137 ± 5 bpm
MAP [1]: 91 ± 3 mm Hg
HR [2]: 127 ± 4 bpm
MAP [2]: 93 ± 4 mm Hg
HR [3]: 129 ± 6 bpm
MAP [3]: 90 ± 3 mm Hg
HR [4]: 104 ± 5 bpm
MAP [4]: 91 ± 2 mm Hg
HR [5]: 104 ± 6 bpm
MAP [5]: 96 ± 3 mm Hg
HR [6]: 93 ± 7 bpm
MAP [6]: 97 ± 3 mm Hg
HR [7]: 166 ± 18 bpm
MAP [7]: 107 ± 6 mm Hg
HR [8]: 163 ± 8 bpm
MAP [8]: 95 ± 5 mm Hg
HR [9]: 158 ± 6 bpm
MAP [9]: 99 ± 4 mm Hg
HR [10]: 141 ± 4 bpm
MAP [10]: 98 ± 4 mm Hg
HR [11]: 131 ± 6 bpm
MAP [11]: 100 ± 2 mm Hg
HR [12]: 128 ± 7 bpm
MAP [12]: 100 ± 2 mm Hg
HR [13]: 113 ± 5 bpm
MAP [13]: 100 ± 2 mm Hg
HR [14]: 102 ± 6 bpm
MAP [14]: 101 ± 4 mm Hg
HR [15]: 101 ± 6 bpm
MAP [15]: 102 ± 4 mm Hg
HR [16]: 149 ± 15 bpm
MAP [16]: 93 ± 3 mm Hg
HR [17]: 144 ± 7 bpm
MAP [17]: 86 ± 4 mm Hg
HR [18]: 148 ± 5 bpm
MAP [18]: 89 ± 4 mm Hg
HR [19]: 135 ± 4 bpm
MAP [19]: 89 ± 4 mm Hg
HR [20]: 130 ± 5 bpm
MAP [20]: 92 ± 4 mm Hg
HR [21]: 127 ± 6 bpm
MAP [21]: 92 ± 4 mm Hg
HR [22]: 105 ± 4 bpm
MAP [22]: 95 ± 4 mm Hg
HR [23]: 98 ± 3 bpm
MAP [23]: 93 ± 6 mm Hg
HR [24]: 99 ± 7 bpm
MAP [24]: 98 ± 5 mm Hg
peak increase in LV dP/dtMax from baseline (regadenoson 5 μg/kg IV, absence of caffeine): 65±7%
duration of the 2-fold increase in CBF [25]: 515 ± 71 s
peak CBF [25]: 191 ± 7 mL/min
peak decrease in LVSP from baseline [25]: 9±1%
peak decrease in MAP from baseline [26]: 15±2%
peak increase in HR from baseline [26]: 114±14%
duration of 2-fold increase in CBF [27]: 401 ± 45 s
maximum CBF [27]: 178 ± 17 mL/min
duration of 2-fold increase in CBF [28]: 395 ± 43 s
maximum CBF [28]: 176 ± 6 mL/min
differences in baseline CBF, maximum CBF or duration of 2-fold increase in CBF between two injections (tachyphylaxis) (two injections of regadenoson 5 μg/kg IV 90 min apart): no statistically significant differences
